The values that follow come from patent publication US8710089B2, “Triazole derivatives as ghrelin analogue ligands of growth hormone secretagogue receptors” (Zentaris GmbH, priority 2005, dated 2014).

One assay addresses T1, human GHS-R 1a (Homo sapiens, UniProt Q92847).
T1 construct: expressed in transfected cells; host or cells: LLC PK-1 porcine renal epithelial cells (ECACC No. 86121112), isolated plasma membranes
The assay is described as follows: GHS-R 1a receptor-ligand binding assay (membrane preparations from transfected LLC PK-1 cells). Conditions: displacement of 125I-His9-ghrelin (60 pM); membranes of LLC PK-1 cells transfected with human GHS-R 1a; mean of at least two independent experiments in triplicates. The method in brief:
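Membranes from LLC PK-1 cells expressing human GHS-R 1a incubated 60 min at 25 °C in 50 mM Tris pH 7.3, 5 mM MgCl2, 2.5 mM EDTA, bacitracin with 60 pM 125I-ghrelin and competitor; nonspecific binding with 10^-6 M ghrelin; filtration read-out.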
(Displacement assays read how much labelled ligand stays bound in the presence of the test substance.)

Assay [1] has as its system GH concentration in the plasma of male rat pups. The assay is described as follows: In vivo GH concentration in the plasma of male rat pups. On the set-up: species or system rat (Sprague-Dawley). Conditions: rat pup plasma, killed 15 min later. The method, then:
IV) Assaying In Vivo GH Concentration in the Plasma of Male Rat Pups
GH plasma concentrations of male rat pubs were assayed to characterize the modulation effect (antagonistic or agonistic) of the compounds of the invention being GHS receptor analogue ligands.
In principle, assaying in vivo GH concentration in rat plasma was performed according to Torsello et al. (Eur. J. Pharmacol. 1998, 360: 123-129).
Male Sprague-Dawley rat pups (Charles River, Calco, Italy) were separated on postnatal day seven from their mothers and randomly redistributed to the dams, so that each one nurtured ten to twelve pups. On postnatal day ten, the pups were again separated from their mothers.
The compounds to be tested were dissolved in solvent [DMSO (0.4% of total volume), distilled water (4% of total volume), brought to the final volume with physiological saline].
One hour after separation from their mothers, the pups were given isovolumetric amounts of the compounds to be tested (160 μg/kg body weight s.c.) at time −10 min and then administered with hexarelin (80 μg/kg body weight s.c.) or solvent at time 0 min before being killed 15 min later by decapitation. Trunk blood was collected, immediately centrifuged and plasma samples were stored at −20° C. until assayed for the determination of GH concentrations.
Plasma GH concentrations were measured using a rat growth hormone enzyme immunoassay kit (SPIbio, France, cat. no. 589601) according to the manufacturer's instructions. Values are expressed in terms of NIDDK rat-GH-RP2 standard (potency 2 IU/mg) as ng/mL of plasma
The limit of detection calculated as the concentration producing 15% displacement of initial tracer was 0.5 ng/ml; intra-assay and inter-assay coefficient of variation are 4% (n=24) and 14% (n=9).
In the following table 3 results obtained for selected compounds of the invention are presented.

Assay [2] has as its system young-adult male Sprague-Dawley rats. The assay is described as follows: Feeding behavior (food intake) of young-adult male rats. In kind it is in vivo, rat (Sprague-Dawley). As to the method:
V) Assaying the Feeding Behavior (Food Intake) of Young-Adult Male Rats
The impact of compounds of the invention being GHS receptor analogue ligands on the feeding behaviour, i.e. food intake, of young-adult male rats was assayed.
In principle, assaying the feeding behavior (food intake) of young-adult male rats was performed according to Torsello et al. (Eur. J. Pharmacol. 1998, 360: 123-129).
For the assay, young-adult male Sprague-Dawley rats (Charles River, Calco, Italy), weighing 200-250 g, were used.
Rats had 1 week of acclimation in individual home cages, and animal room conditions (22±2° C., 65% humidity, artificial light from 08.00 to 20.00 h). The following week, they were daily trained to mimic the experimental procedure. Rats maintained free access to dry pellets and tap water throughout the whole experimental period. At the end of training, rats were administered (around 10.00-11.00 a.m.) subcutaneously with the compounds to be tested (160 μg/kg body weight) and/or hexarelin (80 μg/kg body weight) and/or solvent [DMSO (0.4% of total volume), distilled water (4% of total volume), brought to the final volume with physiological saline].
Hexarelin was used to study the effects of the compounds to be tested on stimulated feeding behavior. Immediately after the injections, the animals were returned to their home cages, which contained a known amount of standard rat chow and ad libitum water. Every hour for the following 6 hours, the remaining food was carefully collected and weighed to the nearest 0.1 g. Food intake was normalized for the body weight of the rats and expressed as grams of food eaten per 100 g body weight of rats.
In the following table 4 results obtained for selected compounds of the invention are presented.

Assay [3] deals with T2, Motilin-Receptor 1a (MTL-R1a) (Homo sapiens, UniProt O43193).
T2 construct: expressed in transfected cells; host or cells: HEK-293 cells
T2 sequence (O43193 whole entry): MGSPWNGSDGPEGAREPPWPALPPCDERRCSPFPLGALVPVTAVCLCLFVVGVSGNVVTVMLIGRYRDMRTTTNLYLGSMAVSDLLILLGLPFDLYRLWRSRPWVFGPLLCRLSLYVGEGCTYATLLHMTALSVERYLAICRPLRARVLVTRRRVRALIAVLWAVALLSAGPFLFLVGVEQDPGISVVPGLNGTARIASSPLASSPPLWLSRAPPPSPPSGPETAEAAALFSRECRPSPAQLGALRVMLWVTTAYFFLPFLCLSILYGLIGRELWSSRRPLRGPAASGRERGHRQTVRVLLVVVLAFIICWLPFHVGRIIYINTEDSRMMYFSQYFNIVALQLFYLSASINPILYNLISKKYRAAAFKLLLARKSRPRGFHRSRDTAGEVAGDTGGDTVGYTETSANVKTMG
In words: Motilin receptor-ligand binding assay (human recombinant HEK-293 cells). The conditions noted are these: 0.1 nM [125I] Motilin, read-out: MTL-R 1a IC50. As to the method: VI) Motilin Receptor-Ligand Binding Assay (Using Human Recombinant HEK-293 Cells)
Motilin Receptor binding/affinity studies were performed as described by Feighner S D et al. (Science 1999, 284: 2184-2188). The assays were run under the following conditions:
Compounds of the invention were tested in concentrations comprising 0.01 μM, 0.1 μM, 1 μM and 10 μM.
IC50 values were determined by a non-linear, least square regression analysis using Data Analysis Toolbox (MDL Information Systems, USA).
In the following table 5 results obtained for selected compounds of the invention are presented.

Assay [4] deals with rats with adjuvant induced arthritis. In words: Anti-cachectic effects in an adjuvant-induced arthritis model system. In kind it is in vivo, rat. Conditions: arthritic rats, 0.1 μg/kg/day s.c. An excerpt:
VII) Study of Anti-Cachectic Effects in an Adjuvant-Induced Arthritis Model System
The effectiveness of compounds of the invention in the treatment of cachexia was investigated according to Ibanez de Caceres I et al. (J Endocrinol. 2000, 165(3): 537-544) using a cachexia model system (Roubenoff R et al., Arthritis Rheum. 1997, 40(3): 534-539).

Where [5] appears, read: compound 160 μg/kg s.c. at -10 min + hexarelin 80 μg/kg s.c. at 0 min.
Where [6] appears, read: compound alone 160 μg/kg body weight s.c. at -10 min, solvent at 0 min.
The mark [7] stands for this setting: compound 160 μg/kg s.c. + hexarelin 80 μg/kg s.c.
Setting [8] is: compound alone, 160 μg/kg body weight s.c.

T1 sequence (Q92847 whole entry): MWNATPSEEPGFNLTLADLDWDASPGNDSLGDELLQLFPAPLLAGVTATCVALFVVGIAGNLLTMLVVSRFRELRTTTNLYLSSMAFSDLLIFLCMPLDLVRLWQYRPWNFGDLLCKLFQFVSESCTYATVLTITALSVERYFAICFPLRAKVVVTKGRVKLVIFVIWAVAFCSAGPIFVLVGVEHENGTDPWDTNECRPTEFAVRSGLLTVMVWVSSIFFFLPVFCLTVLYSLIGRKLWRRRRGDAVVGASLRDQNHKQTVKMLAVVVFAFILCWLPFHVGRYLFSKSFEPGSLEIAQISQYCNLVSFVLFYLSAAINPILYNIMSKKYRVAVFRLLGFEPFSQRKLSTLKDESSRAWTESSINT

Turning to `COc1ccc(Cn2c(CCc3ccccc3)nnc2[C@@H](Cc2c[nH]c3ccccc23)NC(=O)C2CCNCC2)cc1` [compound 44, (R)—N-(1-(4-(4-methoxybenzyl)-5-phenethyl-4H-1,2,4-triazol-3-yl)-2-(1H-indol-3-yl)ethyl)piperidine-4-carboxamide], the IC50 (usually the concentration needed to halve the response being measured) was found to be 0.0006 µM on human GHS-R 1a and 1.61 µM in assay [3]. Besides, the values for the GH concentration in assay [1] (setting [5]) and in assay [1] (setting [6]) were 100.52 ± 12.112 ng/mL and 87.520 ± 15.066 ng/mL, respectively. Besides, the “Cumulative food intake (after 2 hours)” value in assay [2] (setting [7]) is on record as 1.2667 ± 0.1319 g food/100 g body weight; in assay [2] (setting [8]), 0.43 ± 0.0721 g food/100 g body weight. Further, the figures for the “Cumulative food intake (after 6 hours)” value in assay [2] (setting [7]) and in assay [2] (setting [8]) were 1.4033 ± 0.1177 g food/100 g body weight and 0.7075 ± 0.1471 g food/100 g body weight, respectively. Further, the “Body weight change, Day 3” value in assay [4] (Day 3, mean of 6 animals) was −5.32 gram. Also, the “Body weight change, Day 6” value in assay [4] (Day 6, mean of 6 animals) is reported as 2.98 gram. The “Body weight change, Day 10” value in assay [4] (Day 10, mean of 6 animals) was 14.92 gram. The “Body weight change, Day 13” value in assay [4] (Day 13, mean of 6 animals) stood at 19.08 gram. In assay [4] (Day 15, mean of 6 animals), the “Body weight change, Day 15” value turned out to be 7.05 gram. For the same molecule, the “Body weight change, Day 17” value in assay [4] (Day 17, mean of 6 animals) is 1.47 gram.
Turning to `COc1ccc(Cn2c(CCc3ccccc3)nnc2[C@@H](Cc2c[nH]c3ccccc23)NC(=O)c2ccccn2)c(OC)c1` [compound 64, (R)—N-(1-(4-(2,4-dimethoxybenzyl)-5-phenethyl-4H-1,2,4-triazol-3-yl)-2-(1H-indol-3-yl)ethyl)picolinamide], the half-maximal inhibitory concentration (IC50) came to 0.0011 µM on human GHS-R 1a and 1.39 µM in assay [3]. Further, the GH concentration stood at 138.394 ± 14.580 ng/mL in assay [1] (setting [5]) and 13.056 ± 2.169 ng/mL in assay [1] (setting [6]). The entries for the “Cumulative food intake (after 2 hours)” value in assay [2] (setting [7]) and in assay [2] (setting [8]) were 0.012 ± 0.004 g food/100 g body weight and 0.012 ± 0.008 g food/100 g body weight, respectively. Besides, the results for the “Cumulative food intake (after 6 hours)” value in assay [2] (setting [7]) and in assay [2] (setting [8]) were 0.021 ± 0.007 g food/100 g body weight and 0.039 ± 0.011 g food/100 g body weight, respectively.
As to `COc1ccc(Cn2c(CCc3c[nH]c4ccccc34)nnc2[C@@H](Cc2c[nH]c3ccccc23)NC(=O)c2cnccn2)c(OC)c1` [compound 71, (R)—N-(1-(5-(2-(1H-indol-3-yl)ethyl)-4-(2,4-dimethoxybenzyl)-4H-1,2,4-triazol-3-yl)-2-(1H-indol-3-yl)ethyl)pyrazine-2-carboxamide], the IC50 at human GHS-R 1a amounted to 0.019 µM. In addition, the GH concentration in assay [1] (setting [5]) was determined as 173.611 ± 18.444 ng/mL; in assay [1] (setting [6]) it was 15.326 ± 1.355 ng/mL. Moreover, the “Cumulative food intake (after 2 hours)” value in assay [2] (setting [7]) stood at 0.117 ± 0.074 g food/100 g body weight; in assay [2] (setting [8]), 0.522 ± 0.283 g food/100 g body weight. In addition, the “Cumulative food intake (after 6 hours)” value in assay [2] (setting [7]) was 0.20 ± 0.01 g food/100 g body weight; in assay [2] (setting [8]), 0.53 ± 0.28 g food/100 g body weight.
`COc1ccc(Cn2c(CCc3c[nH]c4ccccc34)nnc2[C@@H](Cc2c[nH]c3ccccc23)NC(=O)C2CNCCN2)cc1` (stereo partly shown) [compound 81] yielded an IC50 on human GHS-R 1a of 0.018 µM. Moreover, the values for the GH concentration in assay [1] (setting [5]) and in assay [1] (setting [6]) were 216.575 ± 19.734 ng/mL and 18.634 ± 2.933 ng/mL, respectively. Besides, the “Cumulative food intake (after 2 hours)” value in assay [2] (setting [7]) amounted to 0.024 ± 0.0101 g food/100 g body weight; in assay [2] (setting [8]) it was 0.017 ± 0.004 g food/100 g body weight. For the same molecule, the results for the “Cumulative food intake (after 6 hours)” value in assay [2] (setting [7]) and in assay [2] (setting [8]) were 0.116 ± 0.077 g food/100 g body weight and 0.03 ± 0 g food/100 g body weight, respectively.
The molecule `COc1ccc(Cn2c(CCc3c[nH]c4ccccc34)nnc2[C@@H](Cc2c[nH]c3ccccc23)NC(=O)[C@H]2CCCN2)cc1` [compound 90, (R)—N—((R)-1-(5-(2-(1H-indol-3-yl)ethyl)-4-(4-methoxybenzyl)-4H-1,2,4-triazol-3-yl)-2-(1H-indol-3-yl)ethyl)pyrrolidine-2-carboxamide] gave a half-inhibitory concentration (IC50) on human GHS-R 1a of 0.028 µM. Further, the GH concentration in assay [1] (setting [5]) was 218.844 ± 19.723 ng/mL; in assay [1] (setting [6]), 16.857 ± 2.152 ng/mL. The “Cumulative food intake (after 2 hours)” value was 0.054 ± 0.041 g food/100 g body weight in assay [2] (setting [7]) and 0.014 ± 0.001 g food/100 g body weight in assay [2] (setting [8]). The “Cumulative food intake (after 6 hours)” value in assay [2] (setting [7]) is 0.069 ± 0.041 g food/100 g body weight; in assay [2] (setting [8]), 0.035 ± 0.003 g food/100 g body weight.
